Calls of active or inactive are those of the source. The calls are words filed in the database; no cut-off is given here.
Key:
MCF7 [1] = assay: PROTAC activity at E3-ubiquitin ligase/ER-alpha expressed in human MCF7 cells assessed as decrease in ER-alpha protein level by measuring […] at 0.03 uM incubated for 24 hrs by Western blotting analysis (reference value: 100%); type: cell-based; parameters: scale not given: the % may be the effect or the level left
MCF7 [2] = assay: PROTAC activity at E3-ubiquitin ligase/ER-alpha expressed in human MCF7 cells assessed as decrease in ER-alpha protein level by measuring […] at 0.1 uM incubated for 24 hrs by Western blotting analysis (reference value: 100%); type: cell-based; parameters: scale not given: the % may be the effect or the level left
MCF7 [3] = assay: PROTAC activity at E3-ubiquitin ligase/ER-alpha expressed in human MCF7 cells assessed as decrease in ER-alpha protein level by measuring […] at 0.3 uM incubated for 24 hrs by Western blotting analysis (reference value: 100%); type: cell-based; parameters: scale not given: the % may be the effect or the level left
MCF7 [4] = assay: PROTAC activity at E3-ubiquitin ligase/ER-alpha expressed in human MCF7 cells assessed as decrease in ER-alpha protein level by measuring […] at 1 uM incubated for 24 hrs by Western blotting analysis (reference value: 100%); type: cell-based; parameters: scale not given: the % may be the effect or the level left
MCF7 [5] = assay: PROTAC activity at E3-ubiquitin ligase/ER-alpha expressed in human MCF7 cells assessed as decrease in ER-alpha protein level by measuring […] at 3 uM incubated for 24 hrs by Western blotting analysis(reference value: 100%); type: cell-based; parameters: scale not given: the % may be the effect or the level left
MCF7 [6] = assay: PROTAC activity at E3-ubiquitin ligase/ER-alpha expressed in human MCF7 cells assessed as decrease in ER-alpha protein level by measuring […] at 10 uM incubated for 24 hrs by Western blotting analysis (reference value: 100%); type: cell-based; parameters: scale not given: the % may be the effect or the level left
MCF7 [7] = assay: PROTAC activity at E3-ubiquitin ligase/ER-alpha expressed in human MCF7 cells assessed as decrease in ER-alpha protein level by measuring […] at 30 uM incubated for 24 hrs by Western blotting analysis (reference value: 100%); type: cell-based; parameters: scale not given: the % may be the effect or the level left
MCF7 [8] = assay: PROTAC activity at E3-ubiquitin ligase/ER-alpha expressed in human MCF7 cells assessed as decrease in ER-alpha protein level by measuring […] at 100 uM incubated for 24 hrs by Western blotting analysis (reference value: 100%); type: cell-based; parameters: scale not given: the % may be the effect or the level left
MCF7 [9] = assay: PROTAC activity at E3-ubiquitin ligase/ER-alpha expressed in human MCF7 cells assessed as induction of ER-alpha degradation incubated for 24 hrs in presence of MG132 by measuring ER-alpha to beta actin ratio at 30 uM by Western blotting analysis (reference value: 100%); type: cell-based
MCF7 [10] = assay: PROTAC activity at E3-ubiquitin ligase/ER-alpha expressed in human MCF7 cells assessed as induction of ER-alpha degradation incubated for 24 hrs in presence of MG132 by measuring ER-alpha to beta actin ratio at 100 uM by Western blotting analysis (reference value: 100%); type: cell-based
MCF7 [11] = assay: PROTAC activity at E3-ubiquitin ligase/ER-alpha expressed in human MCF7 cells assessed as induction of ER-alpha degradation incubated for 24 hrs in presence of MLN7243 by measuring ER-alpha to beta actin ratio at 30 uM by Western blotting analysis (reference value: 100%); type: cell-based
MCF7 [12] = assay: PROTAC activity at E3-ubiquitin ligase/ER-alpha expressed in human MCF7 cells assessed as induction of ER-alpha degradation incubated for 24 hrs in presence of MLN7243 by measuring ER-alpha to beta actin ratio at 100 uM by Western blotting analysis (reference value: 100%); type: cell-based
MCF7 [13] = assay: PROTAC activity at E3-ubiquitin ligase/ER-alpha expressed in UBR1 knockdown human MCF7 cells assessed as induction of ER-alpha degradation by measuring ER-alpha to beta actin ratio at 30 uM incubated for 24 hrs by Western blotting analysis (reference value: 100%); type: cell-based
MCF7 [14] = assay: PROTAC activity at E3-ubiquitin ligase/ER-alpha expressed in UBR1 knockdown human MCF7 cells assessed as induction of ER-alpha degradation by measuring ER-alpha to beta actin ratio at 100 uM incubated for 24 hrs by Western blotting analysis (reference value: 100%); type: cell-based
MCF7 [15] = assay: PROTAC activity at E3-ubiquitin ligase/ER-alpha expressed in UBR2 knockdown human MCF7 cells assessed as induction of ER-alpha degradation by measuring ER-alpha to beta actin ratio at 30 uM incubated for 24 hrs by Western blotting analysis (reference value: 100%); type: cell-based
MCF7 [16] = assay: PROTAC activity at E3-ubiquitin ligase/ER-alpha expressed in UBR2 knockdown human MCF7 cells assessed as induction of ER-alpha degradation by measuring ER-alpha to beta actin ratio at 100 uM incubated for 24 hrs by Western blotting analysis (reference value: 100%); type: cell-based
MCF7 [17] = assay: PROTAC activity at E3-ubiquitin ligase/ER-alpha expressed in UBR4 knockdown human MCF7 cells assessed as induction of ER-alpha degradation by measuring ER-alpha to beta actin ratio at 30 uM incubated for 24 hrs by Western blotting analysis (reference value: 16%); type: cell-based
MCF7 [18] = assay: PROTAC activity at E3-ubiquitin ligase/ER-alpha expressed in UBR4 knockdown human MCF7 cells assessed as induction of ER-alpha degradation by measuring ER-alpha to beta actin ratio at 100 uM incubated for 24 hrs by Western blotting analysis (reference value: 41%); type: cell-based
MCF7 [19] = assay: PROTAC activity at E3-ubiquitin ligase/ER-alpha expressed in UBR5 knockdown human MCF7 cells assessed as induction of ER-alpha degradation by measuring ER-alpha to beta actin ratio at 30 uM incubated for 24 hrs by Western blotting analysis (reference value: 16%); type: cell-based
MCF7 [20] = assay: PROTAC activity at E3-ubiquitin ligase/ER-alpha expressed in UBR5 knockdown human MCF7 cells assessed as induction of ER-alpha degradation by measuring ER-alpha to beta actin ratio at 100 uM incubated for 24 hrs by Western blotting analysis (reference value: 41%); type: cell-based
MCF7 [21] = assay: PROTAC activity at E3-ubiquitin ligase/ER-alpha expressed in human MCF7 cells assessed as decrease in ER-alpha protein level by measuring ER-alpha to beta actin ratio at 30 uM incubated for 24 hrs Western blotting analysis (reference value: 100%); type: cell-based; parameters: scale not given: the % may be the effect or the level left
MCF7 [22] = assay: Antiproliferative activity against human MCF7 cells assessed as inhibition of cell viability; type: functional, cell-based; conditions: dose 1-100 µM
MCF7 [23] = assay: PROTAC activity at E3-ubiquitin ligase/ER-alpha expressed in human MCF7 cells assessed as induction of ER-alpha degradation incubated for 24 hrs by measuring ER-alpha to beta actin ratio at 30 uM by Western blotting analysis (reference value: 100%); type: cell-based
MCF7 [24] = assay: PROTAC activity at E3-ubiquitin ligase/ER-alpha expressed in human MCF7 cells assessed as induction of ER-alpha degradation incubated for 24 hrs by measuring ER-alpha to beta actin ratio at 100 uM by Western blotting analysis (reference value: 100%); type: cell-based
MCF7 [25] = assay: PROTAC activity at E3-ubiquitin ligase/ER-alpha expressed in human MCF7 cells assessed as induction of ER-alpha degradation by measuring ER-alpha to beta actin ratio at 30 uM incubated for 24 hrs by Western blotting analysis (reference value: 100%); type: cell-based
MCF7 [26] = assay: PROTAC activity at E3-ubiquitin ligase/ER-alpha expressed in human MCF7 cells assessed as induction of ER-alpha degradation by measuring ER-alpha to beta actin ratio at 100 uM incubated for 24 hrs by Western blotting analysis (reference value: 100%); type: cell-based
MCF7 [27] = assay: Induction of ER-alpha degradation (unknown origin) at 30 uM by measuring ER-alpha to beta actin ratio incubated for 24 hrs Western blotting analysis (reference value: 100%); type: cell-based; conditions: Homo sapiens
MCF7 [28] = assay: Induction of ER-alpha degradation (unknown origin) at 30 uM in presence of 4-OHT by measuring ER-alpha to beta actin ratio incubated for 24 hrs Western blotting analysis (reference value: 100%); type: cell-based; conditions: Homo sapiens
HEK293 [29] = assay: (§1) PROTAC activity at E3-ubiquitin ligase/Halo-tagged Brazilian click beetle Emerald luciferase expressed in human HEK293 cells assessed as decrease in Halo-ELuc protein level by measuring Halo-Eluc to beta-actin ratio at 0.01 uM incubated for 24 hrs by luciferase based Western blotting analysis (reference value: 100%); type: cell-based; parameters: scale not given: the % may be the effect or the level left
HEK293 [30] = assay: as §1, with “0.1” for “0.01”; type: cell-based; parameters: scale not given: the % may be the effect or the level left
HEK293 [31] = assay: as §1, with “1” for “0.01”; type: cell-based; parameters: scale not given: the % may be the effect or the level left
HEK293 [32] = assay: as §1, with “10” for “0.01”; type: cell-based; parameters: scale not given: the % may be the effect or the level left
HEK293 [33] = assay: as §1, with “20” for “0.01”; type: cell-based; parameters: scale not given: the % may be the effect or the level left
HEK293 [34] = assay: PROTAC activity at E3-ubiquitin ligase/Halo-tagged Brazilian click beetle Emerald luciferase expressed in human HEK293 cells assessed as decrease in Halo-ELuc protein level pretreated with 1-chlorohexane for 2 hrs followed by compound addition and measured after 24 hrs by competitive assay; type: cell-based
HEK293 [35] = assay: PROTAC activity at E3-ubiquitin ligase/Halo-tagged Brazilian click beetle Emerald luciferase expressed in human HEK293 cells assessed as decrease in Halo-ELuc protein level pretreated with compound followed by 1-chlorohexane addition and measured after 24 hrs by competitive assay; type: cell-based

Question: `CC/C(=C(/c1ccc(O)cc1)c1ccc(OCCN(C)C(=O)CCC(=O)NCCOCCOCCOCCN2CCN(C3=Nc4cc(Cl)ccc4Nc4ccccc43)CC2)cc1)c1ccccc1` was tested. Which Activity (MCF7 [1]) did it give?
Answer: 122%

Question: What about the Activity (MCF7 [2]) of the same compound?
Answer: 132%

Question: What about the Activity (MCF7 [3]) of the same compound?
Answer: 148%

Question: And the Activity (MCF7 [4])?
Answer: 160%

Question: And the Activity (MCF7 [5])?
Answer: 160%

Question: What about the Activity (MCF7 [6]) of the same compound?
Answer: 116%

Question: And the Activity (MCF7 [7])?
Answer: 42%

Question: And the Activity (MCF7 [8])?
Answer: 33%

Question: What about the Activity (MCF7 [9]) of the same compound?
Answer: 163%

Question: What about the Activity (MCF7 [10]) of the same compound?
Answer: 152%

Question: What about the Activity (MCF7 [11]) of the same compound?
Answer: 121%

Question: What about the Activity (MCF7 [12]) of the same compound?
Answer: 104%

Question: And the Activity (MCF7 [13])?
Answer: 14%

Question: What about the Activity (MCF7 [14]) of the same compound?
Answer: 28%

Question: What about the Activity (MCF7 [15]) of the same compound?
Answer: 27%

Question: What about the Activity (MCF7 [16]) of the same compound?
Answer: 40%

Question: And the Activity (MCF7 [17])?
Answer: 1%

Question: And the Activity (MCF7 [18])?
Answer: 21%

Question: And the Activity (MCF7 [19])?
Answer: 45%

Question: What about the Activity (MCF7 [20]) of the same compound?
Answer: 51%

Question: And the Activity (MCF7 [21])?
Answer: 37%

Question: What about the Activity (MCF7 [22]) of the same compound?
Answer: Dose-dependent-effect

Question: What about the Activity (MCF7 [23]) of the same compound?
Answer: 51%

Question: What about the Activity (MCF7 [24]) of the same compound?
Answer: 27%

Question: And the Activity (MCF7 [25])?
Answer: 16%

Question: And the Activity (MCF7 [26])?
Answer: 41%

Question: `CC/C(=C(\c1ccc(O)cc1)c1ccc(OCCN(C)C)cc1)c1ccccc1` was tested. Which Activity (MCF7 [27]) did it give?
Answer: 116%

Question: `CN1CCN(C2=Nc3cc(Cl)ccc3Nc3ccccc32)CC1` was tested. Which Activity (MCF7 [27]) did it give?
Answer: 104%

Question: And the Activity (MCF7 [28])?
Answer: 91%

Question: Which Activity (HEK293 [29]) does the source give for `ClCCCCCCOCCOCCN1CCN(C2=Nc3cc(Cl)ccc3Nc3ccccc32)CC1` here?
Answer: 103%

Question: And the Activity (HEK293 [30])?
Answer: 97%

Question: What about the Activity (HEK293 [31]) of the same compound?
Answer: 57%

Question: What about the Activity (HEK293 [32]) of the same compound?
Answer: 32%

Question: And the Activity (HEK293 [33])?
Answer: 22%

Question: What about the Activity (HEK293 [34]) of the same compound?
Answer: inactive

Question: And the Activity (HEK293 [35])?
Answer: Not active; Complete Recovery Of Luminescence Not Observed

— ChEMBL document CHEMBL6153165, “Clozapine as an E3 Ligand for PROTAC Technology” (ACS Med Chem Lett, 2025)
